# Measured values from paper PMC12042115 (mLife, 2025).
# System: wild‐type BCG cells
# Type: cell-based, M. bovis BCG
# Conditions: protein A0A0H3MG19, BCG_2669 (Rv2642), Arsenical resistance operon repressor; down-regulated; 3 d
smiles,measurement,value
O=C(Oc1ccc(Cl)cc1)c1ccc(N2CCOCC2)c([N+](=O)[O-])c1 [GDI‐5755],Mean_Ratio (GDI5755_3d vs DMSO_3d),0.7
